pIC50: −log10 of the molar value.
Legend:
HL-60 cells = conditions: HL-60, 5 and 10 μM; cited from earlier work
[1] = test system: all c-Met-dependant cell lines; test: MTT proliferation assay, panel summary; format: cell-based; conditions: Homo sapiens, read-out: IC50 range, antiproliferative activity
[2] = test system: c-Met in MDA-MB-231 cells; test: Western blot analysis of c-Met and p-c-Met levels; format: cell-based, human; conditions: MDA-MB-231, 15 and 30 μM, 48 h
MDA-MB-231/GFP = test: Orthotopic athymic nude mouse xenograft model; format: in vivo, athymic nude mice; conditions: 10 mg/kg i.p. 3 times per week
[3] = test system: non-tumorigenic human mammary epithelial cells MCF-10A

SMILES	cytotoxic mechanism by flow cytometric analysis (HL-60 cells)	pIC50 [1]	effect on phosphorylated (activated) c-Met level [2]	effect on total c-Met level [2]	effect on body weight gains and gross phenotype (MDA-MB-231/GFP; listed as meleagrin)	effect on body weight gains and gross phenotype (MDA-MB-231/GFP; listed as meleagrin (1))	toxicity towards MCF-10A cells [3]
C=CC(C)(C)[C@@]12C=C(O)C(=O)N3/C(=C/c4cn([C@H]5C[C@@]6(O)O[C@@H]7C[C@@]6(C)[C@]6(C[C@]8(C)CCC(C)(C)[C@@H]8[C@@H]76)[C@@H]5C)cn4)C(=O)N[C@]31N(OC)c1ccccc12 [Meleagrin B]	induced HL-60 cells apoptosis						
O=C1N[C@@H](Cc2c[nH]c3ccccc23)C(=O)N/C1=C/c1cnc[nH]1 [DHTD (3), dehydrohistidyltryptophenyl-diketopiperazine]		4.40 to 4.70					
C=CC(C)(C)[C@@]12C[C@H]3C(=O)N/C(=C/c4c[nH]cn4)C(=O)N3[C@@H]1Nc1ccccc12 [Roquefortine C (2), roquefortine C]		4.40 to 4.70					
C=CC(C)(C)[C@@]12C=C(O)C(=O)N3/C(=C/c4cnc[nH]4)C(=O)N[C@]31N(OC)c1ccccc12 [Meleagrin (1), meleagrin]	arrested the cell cycle through G2/M phase	5.05 to 5.74	significant reduction	no effect	not adversely affecting	no significant changes	minimal

— article PMC4703546 (Bioorganic & medicinal chemistry, 2015)
